Results on 16 compounds are retold here after ChEMBL document CHEMBL1140572, “Next-generation spirobenzazepines: identification of RWJ-676070 as a balanced vasopressin V1a/V2 receptor antagonist for human clinical studies” (Bioorg Med Chem Lett, 2007).

Data set [1] concerns the target T1, Vasopressin V2 receptor (Homo sapiens, UniProt P30518). The data set is described as follows: Antagonist activity at human vasopressin V2 receptor expressed in HEK293 cells assessed as inhibition of Arg-vasopressin-induced cAMP levels. The format is functional, cell-based. In general terms: cAMP levels reflect the balance of adenylyl cyclase and phosphodiesterase activity.

For data set [2], the target named is T2, Vasopressin V1a receptor (Homo sapiens, UniProt P37288). Briefly: Displacement of [3H]Arg-vasopressin from human recombinant vasopressin V1a receptor expressed in HEK293 cells. The format is cell-based.
Target sequence in this assay (P37288 whole entry): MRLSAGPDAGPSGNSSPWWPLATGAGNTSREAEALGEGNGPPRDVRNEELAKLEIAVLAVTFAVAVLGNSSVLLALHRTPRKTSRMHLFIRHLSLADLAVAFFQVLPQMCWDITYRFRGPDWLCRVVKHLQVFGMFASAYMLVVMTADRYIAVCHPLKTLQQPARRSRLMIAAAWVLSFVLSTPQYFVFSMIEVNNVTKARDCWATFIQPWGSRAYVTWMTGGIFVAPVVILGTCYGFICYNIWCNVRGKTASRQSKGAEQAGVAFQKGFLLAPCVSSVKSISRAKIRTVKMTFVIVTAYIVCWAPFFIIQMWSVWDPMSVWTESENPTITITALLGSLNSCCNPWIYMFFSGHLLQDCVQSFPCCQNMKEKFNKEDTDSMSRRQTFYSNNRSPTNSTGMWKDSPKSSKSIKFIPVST
Data set [3] concerns the target T1, Vasopressin V2 receptor. Briefly: Displacement of [3H]Arg-vasopressin from human recombinant vasopressin V2 receptor expressed in HEK293 cells. Format: cell-based. A general note: Displacement assays read how much labelled ligand stays bound in the presence of the test substance.
The target of data set [4] is T2, Vasopressin V1a receptor. Briefly: Antagonist activity at human vasopressin V1a receptor expressed in HEK293 cells assessed as inhibition of Arg-vasopressin-induced intracellular calcium level. Format: functional, cell-based.
Target sequence in this assay (P37288 whole entry): as above
The target in data set [5] is T1, Vasopressin V2 receptor. Briefly: Displacement of [3H]Arg-vasopressin from human recombinant vasopressin V2 receptor expressed in HEK293 cells at 100 nM. The format is cell-based.
In data set [6] the test system is Canis familiaris. The data set is described as follows: Aquaretic effect in Beagle dog assessed as increase in urine volume at 30 mg/kg, po relative to control. The format is functional, Canis lupus familiaris.
Data set [7] can be described thus: Half life in cynomolgus monkey plasma. The format is ADME, organism-based, Macaca fascicularis.
Data set [8] has as its system Rattus norvegicus. Briefly: Aquaretic effect in hydrated conscious rat assessed as reduction of urine osmolality at 3 mg/kg, po relative to control. The format is functional. Set-up: scale not given: the % may be the effect or the level left.
Data set [9] can be described thus: Oral bioavailability in cynomolgus monkey. Format: ADME, organism-based, Macaca fascicularis. As to conditions: in vivo.
Data set [10] deals with Rattus norvegicus. The data set is described as follows: Aquaretic effect in hydrated conscious rat assessed as reduction of urine osmolality at 10 mg/kg, po relative to control. Format: functional. Also noted: scale not given: the % may be the effect or the level left.
Data set [11] relates to Rattus norvegicus. Briefly: Reversal of Arg-vasopressin-induced hypertension in iv dosed Long-Evans rat assessed as reduction of blood pressure. Format: functional.
Data set [12] in a line: Half life in dog plasma. Format: ADME, organism-based, Canis lupus familiaris.
The test system of data set [13] is Rattus norvegicus. The data set is described as follows: Aquaretic effect in hydrated conscious rat assessed as increase in urine volume at 10 mg/kg, po relative to control. Format: functional.
Data set [14] deals with Rattus norvegicus. Briefly: Aquaretic effect in hydrated conscious rat assessed as reduction of urine osmolality at 30 mg/kg, po relative to control. Set-up: scale not given: the % may be the effect or the level left. Format: functional.
The subject of data set [15] is Rattus norvegicus. The data set is described as follows: Aquaretic effect in hydrated conscious rat assessed as increase in urine volume at 3 mg/kg, po relative to control. The format is functional.
Data set [16] can be described thus: Half life in rat plasma. The format is ADME, organism-based.
Data set [17] in a line: Oral bioavailability in rat. As to conditions: in vivo. Format: ADME, organism-based.
Data set [18] addresses Vasopressin V1a receptor (Rattus norvegicus, UniProt P30560). Briefly: Antagonist activity at rat vasopressin V1a receptor expressed in HEK293 cells assessed as inhibition of Arg-vasopressin-induced intracellular calcium level. Format: functional, cell-based. Background: Calcium assays in cells follow changes in intracellular calcium, usually with a dye or a luminescent sensor.

In data set [19] the test system is Rattus norvegicus. The data set is described as follows: Aquaretic effect in hydrated conscious rat assessed as reduction of urine osmolality at 1 mg/kg, po relative to control. Format: functional. Also noted: scale not given: the % may be the effect or the level left.
A short description of data set [20]: Oral bioavailability in dog. Format: ADME, organism-based, Canis lupus familiaris. As to conditions: in vivo.
For data set [21], the target named is Vasopressin V2 receptor (Rattus norvegicus, UniProt Q00788). Briefly: Antagonist activity at rat vasopressin V2 receptor expressed in HEK293 cells assessed as inhibition of Arg-vasopressin-induced cAMP levels. Format: functional, cell-based.
In data set [22] the test system is Rattus norvegicus. Briefly: Aquaretic effect in hydrated conscious rat assessed as increase in urine volume at 30 mg/kg, po relative to control. The format is functional.
Data set [23] deals with Canis familiaris. Briefly: Aquaretic effect in Beagle dog assessed as reduction of urine osmolality at 30 mg/kg, po relative to control. The format is functional, Canis lupus familiaris. Set-up: scale not given: the % may be the effect or the level left.
The nature of data set [24]: Aqueous solubility at pH 7.4. Format: physicochemical.
The subject of data set [25] is Rattus norvegicus. Briefly: Aquaretic effect in hydrated conscious rat assessed as increase in urine volume at 1 mg/kg, po relative to control. The format is functional.
Data set [26] has as its target T2, Vasopressin V1a receptor. The data set is described as follows: Displacement of [3H]Arg-vasopressin from human recombinant vasopressin V1a receptor expressed in HEK293 cells at 100 nM. Format: cell-based.
Target sequence in this assay (P37288 whole entry, looked up): as the sequence (P37288 whole entry) above

SMILES strings stand for the structures.

T1 sequence (P30518 whole entry): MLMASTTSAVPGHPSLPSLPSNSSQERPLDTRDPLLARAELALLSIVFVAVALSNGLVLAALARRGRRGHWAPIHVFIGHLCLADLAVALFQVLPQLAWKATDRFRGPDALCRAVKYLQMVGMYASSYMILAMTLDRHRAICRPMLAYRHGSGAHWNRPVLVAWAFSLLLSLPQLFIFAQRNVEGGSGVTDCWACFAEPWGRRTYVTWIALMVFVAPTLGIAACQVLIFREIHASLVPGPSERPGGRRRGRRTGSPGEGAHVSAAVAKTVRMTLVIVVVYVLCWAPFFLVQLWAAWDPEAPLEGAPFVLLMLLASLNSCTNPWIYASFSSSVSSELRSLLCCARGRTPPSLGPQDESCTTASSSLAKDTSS
Chain of Vasopressin V2 receptor (Rattus norvegicus, UniProt Q00788) (Q00788 whole entry): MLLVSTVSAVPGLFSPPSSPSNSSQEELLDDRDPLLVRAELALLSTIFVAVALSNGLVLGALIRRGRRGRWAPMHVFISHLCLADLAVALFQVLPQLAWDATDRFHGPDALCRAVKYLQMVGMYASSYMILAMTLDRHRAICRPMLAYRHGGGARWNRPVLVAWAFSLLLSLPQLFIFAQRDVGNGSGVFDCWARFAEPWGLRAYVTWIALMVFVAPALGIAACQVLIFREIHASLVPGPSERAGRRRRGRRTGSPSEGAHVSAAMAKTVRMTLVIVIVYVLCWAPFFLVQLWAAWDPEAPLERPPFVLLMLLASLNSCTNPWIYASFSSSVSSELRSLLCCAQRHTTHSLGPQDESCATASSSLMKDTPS
Chain of Vasopressin V1a receptor (Rattus norvegicus, UniProt P30560) (P30560 whole entry): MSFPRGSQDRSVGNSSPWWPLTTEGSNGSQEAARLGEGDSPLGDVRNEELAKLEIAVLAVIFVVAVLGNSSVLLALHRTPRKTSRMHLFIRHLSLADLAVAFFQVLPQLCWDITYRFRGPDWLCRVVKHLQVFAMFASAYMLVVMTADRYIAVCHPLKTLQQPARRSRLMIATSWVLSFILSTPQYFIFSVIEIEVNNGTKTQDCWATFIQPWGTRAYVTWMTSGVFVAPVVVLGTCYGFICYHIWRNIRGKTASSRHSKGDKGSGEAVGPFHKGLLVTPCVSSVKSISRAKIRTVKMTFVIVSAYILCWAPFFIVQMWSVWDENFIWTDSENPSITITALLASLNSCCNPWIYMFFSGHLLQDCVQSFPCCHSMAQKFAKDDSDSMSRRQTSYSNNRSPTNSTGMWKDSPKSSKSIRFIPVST

In general, IC50 refers to the concentration at which inhibition is half-maximal. For `CN(C)CCNC(=O)C1=C[C@@]2(CC1)CCN(C(=O)c1ccc(NC(=O)c3ccccc3-c3ccccc3)cc1)c1ccccc1C2`, the IC50 in data set [1] turned out to be 36 nM; in data set [2] it was 2 nM; in data set [3], 8 nM; in [4], 45 nM.

Take `Cc1ccc(F)cc1C(=O)Nc1ccc(C(=O)N2CCC3(C=C(CO)CC3)Cc3ccccc32)c(Cl)c1` (stereo not given): the IC50 in data set [2] stood at 100 nM. Moreover, the Activity in data set [5] turned out to be 66%.

For `O=C(O)C1=CC2(CC1)CCN(C(=O)c1ccc(NC(=O)c3cc(F)ccc3Cl)cc1)c1ccccc1C2` (stereo not given), the IC50 in data set [1] is 410 nM; in data set [2], 32 nM; in data set [3], 76 nM; in data set [4] it was 780 nM.

Turning to `O=C(O)C1=CC2(CC1)CCN(C(=O)c1ccc(NC(=O)c3ccccc3-c3ccccc3)cc1)c1ccccc1C2` (stereo not given), the IC50 in [1] came to 360 nM.

Broadly, the half-life is how long it takes for the measured level to halve. The term bioavailability denotes dose-corrected exposure relative to a reference, in per cent. In general, ED50 refers to the dose that gives a 50% effect, or the effect in half of the subjects. Broadly, the solubility is how much of the substance goes into solution per volume. `COc1cc(C(=O)N2CC[C@]3(C=C(C(=O)O)CC3)Cc3ccccc32)ccc1NC(=O)c1cc(F)ccc1Cl`: the Activity in data set [6] worked out at 1130%; in data set [8], 48%; in [10] it was 52%; in data set [13], 310%; in data set [14], 83%; in [15], 165%. The Activity in [19] is 87%; in data set [22], 690%; in data set [23], -78%; in data set [25], 130%. The half-life in data set [7] is 10.9 h; in data set [12], 5.1 h; in data set [16], 8.7 h. In addition, the bioavailability in data set [9] is 23%; in data set [17], 68%; in [20], 45%. Further, in [11], the ED50 stood at 0.644 mg/kg. The results for the IC50 in data set [3], in [18] and in [21] were 34 nM, 640 nM and 30 nM, respectively. The same compound returned a solubility in data set [24] of over 1000 µg/mL.

Take `Cc1ccc(F)cc1C(=O)Nc1ccc(C(=O)N2Cc3cccn3Cc3ccccc32)c(Cl)c1` [LIXIVAPTAN]: the IC50 in [4] was over 5000 nM.

Consider `O=C(O)C1=CC2(CC1)CCN(C(=O)c1ccc(NC(=O)c3ccccc3F)cc1)c1ccccc1C2` (stereo not given), for which, in data set [2], the IC50 was 100 nM. The Activity in data set [5] was found to be 15%.

Take `O=C(Nc1ccc(C(=O)N2CCC3(C=C(CO)CC3)Cc3ccccc32)cc1)c1ccccc1-c1ccccc1` (stereo not given): the IC50 in data set [1] was determined as 190 nM; in data set [4] it was 9 nM.

With `COc1cc(C(=O)N2CCC3(C=C(C(=O)O)CC3)Cc3ccccc32)ccc1NC(=O)c1cc(F)ccc1Cl` (stereo not given), the IC50 was 120 nM in data set [1], 19 nM in data set [2], 92 nM in data set [3] and 89 nM in data set [4].

Take `COc1cc(C(=O)N2CC[C@]3(C=C(C4=NCCN4)CC3)Cc3ccccc32)ccc1NC(=O)c1cc(F)ccc1Cl`: the IC50 in [1] is 1050 nM.

With `COC(=O)C1=CC2(CC1)CCN(C(=O)c1ccc(NC(=O)c3cc(F)ccc3Cl)cc1)c1ccccc1C2` (stereo not given), the IC50 in [1] is over 10000 nM; in [2], 40 nM; in data set [3] it was over 200 nM; in data set [4] it was 190 nM.

With `CNCC1=CC2(CC1)CCN(C(=O)c1ccc(NC(=O)c3ccccc3-c3ccccc3)cc1)c1ccccc1C2` (stereo not given), the IC50 in [1] was determined as 1800 nM; in data set [2], 18 nM; in [3], 44 nM; in [4], 630 nM.

For `COc1cc(NC(=O)c2cc(F)ccc2C)ccc1C(=O)N1CCC2(C=C(C(=O)O)CC2)Cc2ccccc21` (stereo not given), the IC50 in data set [1] worked out at 140 nM; in data set [4], 11600 nM. In addition, the Activity in data set [26] amounted to 15%.

For `Cc1ccc(F)cc1C(=O)Nc1ccc(C(=O)N2CCC3(C=C(C(=O)O)CC3)Cc3ccccc32)c(Cl)c1` (stereo not given), the Activity was determined as 10% in [26] and 67% in data set [5].

Take `COC(=O)C1=CC2(CC1)CCN(C(=O)c1ccc(NC(=O)c3ccccc3F)cc1)c1ccccc1C2` (stereo not given): the IC50 in data set [1] is over 10000 nM; in data set [4] it was 130 nM. In addition, the Activity in data set [5] was found to be 23%.

Regarding `CNCC1=CC2(CC1)CCN(C(=O)c1ccc(NC(=O)c3cc(F)ccc3C)cc1Cl)c1ccccc1C2` (stereo not given), the Activity is 0% in [26] and 17% in [5].
